Test results taken from article PMC6332076, “Plasma Pharmacokinetics of Polyphenols in a Traditional Japanese Medicine, Jumihaidokuto, Which Suppresses Propionibacterium acnes-Induced Dermatitis in Rats” (Molecules, 2015).

Tested on: Propionibacterium acnes (P. acnes)-induced dermatitis
Test: P. acnes-induced acute dermatitis, ear thickness
Type: in vivo, rat
Settings: rats, intradermal P. acnes 0.14 mg/ear; JHT 0.5 g/kg p.o. 1 h before and 6 h after injection; PDN 10 mg/kg p.o.; P. acnes + DW group 181%; N = 5
Method: Figure 1 Suppression of Propionibacterium acnes (P. acnes)-induced dermatitis in rats by jumihaidokuto (JHT) administration. Dermatitis was induced in rats by injection of P. acnes (0.14 mg/50 μL/ear) into the pinna. The ear thickness was measured at 0 and 24 h after the injection. JHT suspended in distilled water (DW) was administered orally at a dose of 0.5 g/10 mL/kg at 1 h before and 6 h after the injection. Prednisolone (PDN, 10 mg/10 mL/kg) was used as a reference drug. Data represent the relative ear thickness, which was standardized against the previous values before the injection. N = 5. ^## p < 0.01 vs. saline + DW group (Student’s t-test), ** p < 0.01 significant vs. P. acnes + DW group (Dunnett’s test). […]
P. acnes-induced dermatitis was induced using the procedure described previously with a minor modification. […] The ear thickness was measured using a dial thickness gauge micrometer (Ozaki MFG Co., Tokyo, Japan) at 0 and 24 h after the injection. All data on the increase in ear thickness were expressed as a percentage of the previous value in each individual rat, and as the mean ± S.E. Statistical significance was evaluated by one-way analysis of variance, followed by the Dunnett’s multiple comparisons or unpaired Student’s t-test. […]

Compound: C[C@]12C=CC(=O)C=C1CC[C@@H]1[C@@H]2[C@@H](O)C[C@@]2(C)[C@H]1CC[C@]2(O)C(=O)CO [PDN, Prednisolone]
- increase in ear thickness in a 24 h period compared with that prior to injection: 123%
